Source: patent publication US11149027B2, “Heterocyclic compound” (Sumitomo Chemical Company, Limited, priority 2016, dated 2021)

Assays:
[1] = tested on: houseflies (Musca domestica); test: Test Example 10: treated filter paper with sucrose, houseflies; format: in vivo; settings: 500 ppm, 0.7 ml on filter paper with sucrose, female adult, after 24 hours
Description: (§1) Test compounds are made to a formulation according to a similar method to that described in the Formulation example 5, and thereto is added water to prepare a diluted solution containing a prescribed concentration of the test compound.
A filter paper having a diameter of 5.5 cm in diameter is spread on the bottom of the cup, and 30 mg of sucrose is placed on the filter paper, and then 0.7 ml of the diluted solutions are added dropwise to the filter paper. Ten (10) houseflies (Musca domestica) female adult are released into the cup. After 24 hours, the number of the died insects is counted, and the mortality of insects is calculated by the following equation. Mortality (%)=(Number of died insects/test insects)×100

[2] = tested on: brown planthoppers (Nilaparvata lugens); test: Test Example 4: root uptake by rice seedling from diluted solution, brown planthoppers; format: in vivo; settings: 1000 ppm, 5 mL diluted solution under rice seedling, third instar larvae released after 7 days, examined after 6 days
Description: as §1
The diluted solution 5 mL is added to one cup, and Rice (Oryza sativa) seedling (on the developmental stage of the second true leaf) is planted in the other cup with a hole on the bottom and the other cup is placed on the cup. After 7 days, 20 brown planthoppers (Nilaparvata lugens) at the third instar larval stage are released onto the seedling. After 6 days, the number of the surviving insects is examined, and the mortality is calculated by the following equation. Mortality (%)={1−Number of surviving insects/20}×100

Compound	mortality of insects [1]	mortality of insects [2]
CCS(=O)(=O)c1cccnc1-c1ccc(-n2ccc(C(F)(F)F)n2)nn1 [compound 2]	100%	
CCS(=O)(=O)c1cccnc1-c1ccc(-n2cnc(C(F)(F)F)n2)nn1 [compound 4]	100%	
CCS(=O)(=O)c1cccnc1-c1ccc(-n2cnc(C(F)(F)F)c2)nn1 [compound 7]	100%	
CCS(=O)(=O)c1cccnc1-c1ccc(-n2cc(C(F)(F)F)cn2)nn1 [compound 9]	100%	≥ 90%
